Laboratory results: ChEMBL document CHEMBL4270496, “How to train your inhibitor: Design strategies to overcome resistance to Epidermal Growth Factor Receptor inhibitors” (Eur J Med Chem, 2017)
Blank lines part the entries; values can stand above or below the compound they belong to.

Experiments:
[1] = test system: BT-474; assay: Antiproliferative activity against human BT474 cells expressing wild type HER2 incubated for 72 hrs by MTS assay; type: functional, cell-based; settings: BT-474, 72 h
[2] = test system: NCI-H1975; assay: Antiproliferative activity against human NCI-H1975 cells expressing EGFR T790M/L858R mutant incubated for 72 hrs by MTS assay; type: functional, cell-based; settings: NCI-H1975, 72 h
[3] = test system: MCF7; assay: Antiproliferative activity against human MCF7 cells expressing wild type HER2 incubated for 72 hrs by MTS assay; type: functional, cell-based; settings: MCF7, 72 h
[4] = test system: A549; assay: Antiproliferative activity against human A549 cells; type: functional, cell-based
[5] = test system: A-431; assay: Antiproliferative activity against human A431 cells expressing wild type EGFR incubated for 72 hrs by MTS assay; type: functional, cell-based; settings: A-431, 72 h
[6] = molecular target: T1, Receptor tyrosine-protein kinase erbB-2 (Homo sapiens, UniProt P04626); assay: Inhibition of HER2 (unknown origin)
T1 sequence (P04626 whole entry): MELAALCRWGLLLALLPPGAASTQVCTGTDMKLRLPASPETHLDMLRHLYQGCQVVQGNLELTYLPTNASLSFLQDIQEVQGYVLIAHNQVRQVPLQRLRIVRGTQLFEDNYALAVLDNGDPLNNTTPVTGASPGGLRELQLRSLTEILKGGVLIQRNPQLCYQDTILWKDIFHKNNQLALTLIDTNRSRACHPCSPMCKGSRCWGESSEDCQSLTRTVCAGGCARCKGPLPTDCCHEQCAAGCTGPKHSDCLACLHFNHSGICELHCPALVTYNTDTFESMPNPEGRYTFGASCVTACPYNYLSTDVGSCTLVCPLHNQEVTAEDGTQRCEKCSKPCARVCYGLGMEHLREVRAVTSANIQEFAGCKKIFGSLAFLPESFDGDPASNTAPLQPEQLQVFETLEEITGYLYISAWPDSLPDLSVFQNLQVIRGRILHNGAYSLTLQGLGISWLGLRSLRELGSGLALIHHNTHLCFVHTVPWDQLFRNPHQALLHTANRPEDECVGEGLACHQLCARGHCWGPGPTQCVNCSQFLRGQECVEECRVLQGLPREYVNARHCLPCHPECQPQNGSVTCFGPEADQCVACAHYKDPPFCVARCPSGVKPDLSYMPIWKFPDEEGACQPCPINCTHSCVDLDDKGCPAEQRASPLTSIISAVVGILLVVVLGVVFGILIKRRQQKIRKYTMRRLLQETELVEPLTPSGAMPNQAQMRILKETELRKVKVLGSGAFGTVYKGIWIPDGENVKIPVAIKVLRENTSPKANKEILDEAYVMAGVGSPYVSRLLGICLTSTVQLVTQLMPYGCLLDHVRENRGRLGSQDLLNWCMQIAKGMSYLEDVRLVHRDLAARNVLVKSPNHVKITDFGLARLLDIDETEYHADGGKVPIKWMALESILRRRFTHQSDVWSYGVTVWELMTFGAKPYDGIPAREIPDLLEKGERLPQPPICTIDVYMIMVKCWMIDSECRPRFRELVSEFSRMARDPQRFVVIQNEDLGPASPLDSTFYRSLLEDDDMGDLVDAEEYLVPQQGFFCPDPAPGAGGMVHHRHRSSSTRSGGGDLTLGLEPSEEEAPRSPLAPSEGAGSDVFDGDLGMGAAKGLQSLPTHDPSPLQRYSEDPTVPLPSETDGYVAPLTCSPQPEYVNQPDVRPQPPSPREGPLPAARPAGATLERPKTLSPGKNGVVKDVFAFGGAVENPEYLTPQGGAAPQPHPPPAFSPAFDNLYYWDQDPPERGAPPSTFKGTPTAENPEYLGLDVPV

[7] = molecular target: T2, Epidermal growth factor receptor (Homo sapiens, UniProt P00533); assay: Inhibition of EGFR (unknown origin)
T2 sequence (P00533 whole entry): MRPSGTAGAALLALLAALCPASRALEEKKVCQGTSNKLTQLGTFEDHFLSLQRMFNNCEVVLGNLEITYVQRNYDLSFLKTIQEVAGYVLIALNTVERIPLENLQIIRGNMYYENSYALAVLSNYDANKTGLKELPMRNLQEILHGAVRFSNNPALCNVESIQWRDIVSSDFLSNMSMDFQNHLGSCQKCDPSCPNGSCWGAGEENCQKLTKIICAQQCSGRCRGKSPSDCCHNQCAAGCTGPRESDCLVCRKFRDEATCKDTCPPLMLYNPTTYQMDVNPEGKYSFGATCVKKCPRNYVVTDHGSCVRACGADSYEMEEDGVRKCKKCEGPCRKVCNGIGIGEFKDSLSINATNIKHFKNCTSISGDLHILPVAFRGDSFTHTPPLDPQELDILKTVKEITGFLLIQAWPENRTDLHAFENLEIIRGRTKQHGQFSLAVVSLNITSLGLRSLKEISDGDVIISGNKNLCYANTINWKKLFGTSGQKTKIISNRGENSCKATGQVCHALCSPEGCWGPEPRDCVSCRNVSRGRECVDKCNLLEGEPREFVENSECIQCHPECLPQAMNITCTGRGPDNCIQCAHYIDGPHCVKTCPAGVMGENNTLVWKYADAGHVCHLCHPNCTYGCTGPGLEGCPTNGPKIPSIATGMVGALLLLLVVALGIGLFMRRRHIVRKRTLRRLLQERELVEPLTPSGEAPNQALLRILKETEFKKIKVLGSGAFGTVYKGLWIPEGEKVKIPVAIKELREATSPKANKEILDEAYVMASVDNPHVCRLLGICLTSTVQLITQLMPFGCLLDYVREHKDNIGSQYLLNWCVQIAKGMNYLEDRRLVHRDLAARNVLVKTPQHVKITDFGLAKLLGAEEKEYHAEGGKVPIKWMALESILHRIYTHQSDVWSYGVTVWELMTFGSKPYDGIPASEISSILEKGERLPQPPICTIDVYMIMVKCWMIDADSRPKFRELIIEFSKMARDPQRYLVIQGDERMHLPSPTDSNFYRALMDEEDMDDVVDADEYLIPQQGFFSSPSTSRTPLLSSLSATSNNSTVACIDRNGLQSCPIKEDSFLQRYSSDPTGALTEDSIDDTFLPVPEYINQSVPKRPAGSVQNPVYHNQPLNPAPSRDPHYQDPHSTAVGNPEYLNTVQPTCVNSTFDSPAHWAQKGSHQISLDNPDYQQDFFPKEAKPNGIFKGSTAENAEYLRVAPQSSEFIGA

[8] = test system: MCF7; assay: Antiproliferative activity against human MCF7 cells expressing wild type HER2; type: functional, cell-based
[9] = test system: NCI-H1975; assay: Antiproliferative activity against human NCI-H1975 cells expressing EGFR T790M/L858R mutant; type: functional, cell-based
[10] = test system: A-431; assay: Antiproliferative activity against human A431 cells expressing wild type EGFR; type: functional, cell-based
[11] = molecular target: Epidermal growth factor receptor (Homo sapiens, UniProt P00533, T790M/L858R); assay: Inhibition of EGFR T790M/L858R mutant (unknown origin)
Epidermal growth factor receptor (Homo sapiens, UniProt P00533, T790M/L858R), sequence (P00533 25-1210 T790M/L858R limits assumed): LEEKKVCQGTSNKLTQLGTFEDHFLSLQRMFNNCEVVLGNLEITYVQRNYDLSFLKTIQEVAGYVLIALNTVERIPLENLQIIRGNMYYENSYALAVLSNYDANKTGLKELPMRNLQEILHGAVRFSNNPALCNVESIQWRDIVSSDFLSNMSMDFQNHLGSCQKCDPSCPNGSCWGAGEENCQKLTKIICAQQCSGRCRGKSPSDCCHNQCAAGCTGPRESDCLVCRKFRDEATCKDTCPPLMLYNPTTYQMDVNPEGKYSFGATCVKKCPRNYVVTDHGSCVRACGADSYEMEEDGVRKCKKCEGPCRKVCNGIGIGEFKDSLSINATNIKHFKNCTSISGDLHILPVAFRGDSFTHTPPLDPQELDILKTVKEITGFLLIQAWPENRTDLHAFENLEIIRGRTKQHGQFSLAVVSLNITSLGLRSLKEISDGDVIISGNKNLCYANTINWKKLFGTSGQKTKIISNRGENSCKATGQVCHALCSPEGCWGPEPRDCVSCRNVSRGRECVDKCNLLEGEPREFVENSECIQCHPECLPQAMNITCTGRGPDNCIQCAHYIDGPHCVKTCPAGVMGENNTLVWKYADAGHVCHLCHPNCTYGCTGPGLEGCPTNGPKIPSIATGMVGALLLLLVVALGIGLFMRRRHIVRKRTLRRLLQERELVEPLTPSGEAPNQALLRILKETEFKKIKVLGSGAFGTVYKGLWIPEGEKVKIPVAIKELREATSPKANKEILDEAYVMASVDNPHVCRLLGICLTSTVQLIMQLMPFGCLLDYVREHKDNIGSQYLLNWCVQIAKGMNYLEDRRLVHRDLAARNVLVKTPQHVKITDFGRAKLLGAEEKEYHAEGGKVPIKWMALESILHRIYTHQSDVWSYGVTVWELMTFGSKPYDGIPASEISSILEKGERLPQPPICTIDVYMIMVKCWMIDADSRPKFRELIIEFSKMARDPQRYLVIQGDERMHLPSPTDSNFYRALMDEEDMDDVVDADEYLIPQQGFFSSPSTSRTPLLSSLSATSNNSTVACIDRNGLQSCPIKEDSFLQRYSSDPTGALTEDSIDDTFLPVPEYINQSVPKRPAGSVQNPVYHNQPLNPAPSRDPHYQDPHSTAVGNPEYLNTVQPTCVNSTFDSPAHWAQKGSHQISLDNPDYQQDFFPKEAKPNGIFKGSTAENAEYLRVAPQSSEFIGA

[12] = test system: NCI-N87; assay: Antiproliferative activity against human NCI-N87 cells expressing wild type EGFR and HER2 incubated for 72 hrs by MTS assay; type: functional, cell-based; settings: NCI-N87, 72 h
[13] = molecular target: T1, Receptor tyrosine-protein kinase erbB-2; assay: Inhibition of GST-tagged human HER2 catalytic domain expressed in insect cells
[14] = molecular target: Epidermal growth factor receptor (Homo sapiens, UniProt P00533, L858R); assay: Inhibition of human EGFR L858R mutant expressed in mouse Ba/F3 cells; type: cell-based
[15] = molecular target: Epidermal growth factor receptor (Homo sapiens, UniProt P00533, T790M); assay: Inhibition of human EGFR T790M mutant expressed in mouse Ba/F3 cells; type: cell-based
[16] = molecular target: Epidermal growth factor receptor (Homo sapiens, UniProt P00533, L858R/T790M); assay: Inhibition of human EGFR T790M/L858R mutant expressed in mouse Ba/F3 cells; type: cell-based
Epidermal growth factor receptor (Homo sapiens, UniProt P00533, L858R/T790M), sequence (P00533 25-1210 T790M/L858R limits assumed): as above

[17] = molecular target: T2, Epidermal growth factor receptor; assay: Inhibition of GST-tagged human EGFR catalytic domain expressed in insect cells
[18] = Antiproliferative activity against human NCI-H1819 cells expressing wild type HER2 incubated for 72 hrs by MTS assay; type: functional, cell-based; settings: NCI-H1819, 72 h
[19] = test system: SK-BR-3; assay: Antiproliferative activity against human SKBR3 cells expressing wild type HER2 incubated for 72 hrs by MTS assay; type: functional, cell-based; settings: SK-BR-3, 72 h
[20] = Antiproliferative activity against human HS27 cells expressing wild type HER2 incubated for 72 hrs by MTS assay; type: cell-based

IC50 [1]: 54 nM | IC50 [2]: 92 nM
SMILES: CN(C)C/C=C/C(=O)Nc1cc2c(Nc3ccc(F)c(Cl)c3)ncnc2cc1O[C@@H]1CCOC1

IC50 [2]: 101 nM
SMILES: C=CC(=O)Nc1cc2c(Nc3ccc(F)c(Cl)c3)ncnc2cc1OCCCN1CCOCC1 [CANERTINIB]

IC50 [2]: 440 nM
SMILES: COc1cc2ncnc(Nc3ccc(F)c(Cl)c3)c2cc1NC(=O)/C=C/CN1CCCCC1 [DACOMITINIB ANHYDROUS]
IC50 [18]: 29 nM

The remaining lines, values behind:

SMILES: O=C(Nc1ccc2ncnc(Nc3cccc(Br)c3)c2c1)c1ccc(C(F)(F)F)cc1O
IC50 [3]: 490 nM | IC50 [4]: 1640 nM | IC50 [5]: 670 nM

SMILES: CC(C)(O)CC(=O)NCCc1ccc2ncnc(Nc3ccc(Oc4cccc(C(F)(F)F)c4)c(Cl)c3)c2c1
IC50 [6]: 19 nM | IC50 [7]: 9.8 nM | IC50 [8]: 94 nM | IC50 [9]: 127 nM | IC50 [10]: 41 nM | IC50 [11]: 33 nM

SMILES: CCOc1cc2ncnc(Nc3ccc(OCc4cccc(F)c4)c(Cl)c3)c2cc1NC(=O)/C=C/[C@@H]1CCCN1
IC50 [12]: 47 nM | IC50 [5]: 62 nM | IC50 [2]: 34 nM

SMILES: C=CC(=O)Nc1cc2c(Nc3ccc(F)c(Cl)c3)ncnc2cc1C#CC(C)(C)N1CCN(C)CC1 [AV-412 FREE BASE]
IC50 [13]: 19 nM | IC50 [5]: 100 nM | IC50 [14]: 0.51 nM | IC50 [15]: 0.79 nM | IC50 [16]: 2.3 nM | IC50 [17]: 1.4 nM

SMILES: C=CC(=O)N1CCC(Oc2cc3c(Nc4ccc(Cl)c(Cl)c4F)ncnc3cc2OC)CC1 [POZIOTINIB]
IC50 [19]: 1 nM | IC50 [13]: 5.3 nM | IC50 [5]: 0.9 nM | GI50 at 72 h [20]: 3830 nM | IC50 [2]: 5.7 nM
